Earlier results as cited in patent US20050175599A1, “Process for producing substance” (Kyowa Hakko Kogyo Co., Ltd., priority 2001, published 2005).

How the values were obtained:
HeLa cells = conditions: ubiquinone added to media; Protoplasma, 184, 214 (1995); cited from earlier work
murine fibroblast cells = conditions: ubiquinone added to media; Protoplasma, 184, 214 (1995); cited from earlier work
bovine embryo cells = conditions: ubiquinone added to media; Biol. Reprod., 61, 541 (1999); cited from earlier work

Measured: effect on cell growth

COC1=C(OC)C(=O)C(C/C=C(\C)CC/C=C(\C)CC/C=C(\C)CC/C=C(\C)CC/C=C(\C)CC/C=C(\C)CC/C=C(\C)CC/C=C(\C)CC/C=C(\C)CCC=C(C)C)=C(C)C1=O [ubiquinone, 2,3-dimethoxy-5-methyl-6-polyprenyl-1,4-benzoquinone]
promotes the growth: all assays above
